{"source": "patent US20240391861A1", "about": "“PROCESS FOR THE RECOVERY OF MONOPOTASSIUM GLUCARATE AND GLUCARIC ACID” (Alliance for Sustainable Energy, LLC, priority 2021, published 2024)", "key": {"[1]": {"conditions": "300 K, cited from earlier work"}, "[2]": {"test": "Enthalpy and entropy of dissolution from Van't Hoff plot of solubility versus temperature", "format": "physicochemical", "description": "The enthalpy and entropy of dissolution of KGA and GA. The enthalpy and entropy of dissolution are calculated here using the solubility of KGA and GA in solutions of identical solvent composition as a function of temperature. The solubility of KGA and GA and related thermodynamic properties (enthalpy and entropy of dissolution) are important because they can be used for building a crystallization model and optimizing crystallization conditions in a large scale process. Accordingly, using the solubility data obtained for each compound (FIG. 2B), the enthalpy and entropy of dissolution of both KGA and GA were calculated using the Van't Hoff equation.\nIn Equation 1, x is the mole fraction of a compound in the solvent, Δ_dis H and Δ_dis S are the enthalpy and the entropy of dissolution, T is the absolute temperature, and R represents the ideal gas constant. The solubility of KGA or GA was measured by varying temperature to plot ln x versus 1/T, and the resulting values of enthalpy and entropy of dissolution was determined from the slope and the intercept, respectively.\nThe antisolvent loading in each mixture is the same as used in each purification process. Table 4 provides the dissolution enthalpy and entropy of both KGA and GA calculated from Eq. (1) using the linear fits in FIG. 5. […] The […] of GA solubility data yields a negative entropy of dissolution for GA. This could be because dissolved GA is in equilibrium with lactones, and they form dimers or organized structures that are represented by this value."}, "[3]": {"test": "GA Solubility Test (TGA mass balance of saturated solution)", "format": "physicochemical", "conditions": "4° C.", "procedure": "GA Solubility Test: Due to the lactonization potential of glucaric acid, the solubility was estimated using thermogravimetric analysis (TGA) based on the mass balance of the saturated solution. A sample of acetone-washed GA was dissolved in 3 mL of the IPA/water mixture (7:1 by mass) to excess, sonicated, and allowed to settle overnight at each of three temperatures: −20° C., 4° C. and 22° C. Next, the solutions were filtered at a pore size of 0.45 μm. These saturated solutions were dropped into an aluminum Differential Scanning calorimetry (DSC) pan and placed on dry ice to partially freeze them and slow the evaporation rate so that the mass of the total solution could be measured by TGA. The partially frozen solution was heated from room temperature at 5° C. per minute to 110° C. and held isothermally for 15 minutes to allow the solvent to evaporate. In this way, the mass of the remaining species in the pan was determined to μg precision. This was taken to be the total mass of GA that had dissolved in the solvent, including possible lactone products, in a catch-all method."}, "physchem": {"test": "physchem", "conditions": "pH 1.5, aqueous buffer, thermodynamic from solid", "procedure": "(§1) KGA Solubility Test: KGA solubility was quantified by adding excess KGA to UHP water and adjusting pH between 1-6 by addition of 2 M HCl or 2 M KOH with stirring. The samples were mixed, allowed to sit overnight, and then the pH was measured again. The samples were filtered, diluted with a pH 7 phosphate buffer to reduce lactonization and the KGA concentration was quantified by LC. Similarly, KGA solubility in a 25.2 wt. % acetone solution was measured by preparing KGA-saturated solution samples at −20° C., 22° C. and 40° C. and quantified by using the liquid chromatography (LC) method.\n(§2) 15 μl samples were injected into a Phenomenex Luna C18(2) 5 μm, 150 mm×4.6 mm column at a temperature of 35° C. An isocratic mobile phase of 20 mM potassium phosphate at pH 7 was pumped at a flow rate of 0.65 mL/min for 7 min."}, "[4]": {"conditions": "reported pKa value of glucaric acid; cited from earlier work"}, "[5]": {"test": "KGA Solubility Test (glucarate solubility at various pH in water and acetone/water, quantified by LC)", "conditions": "for solubility: 22 °C, thermodynamic from solid", "procedure": "as §1, §2"}, "[6]": {"test": "Reported pKa values of glucaric acid and molar speciation calculated from them", "format": "physicochemical", "conditions": "at pH 3.6, calculated from reported pKa values", "excerpt": "The inset photo is the KGA precipitate from broth pH adjusted to 3.5 (left) and broth pH adjusted to 3.5 with acetone 25 wt. % acetone addition (right)."}}, "data": [{"compound": "O=C(O)[C@@H](O)[C@H]1OC(=O)[C@H](O)[C@H]1O", "note": "[1,4-lactone, D-glucaro-1,4-lactone]", "values": [{"measurement": "Rate constant k1", "setting": "[1]; 1,4-lactone → GA", "value": "7.04e-05", "unit": "s⁻¹"}]}, {"compound": "O=C1O[C@H]2[C@H](OC(=O)[C@@H]2O)[C@@H]1O", "note": "[1,4:6,3-dilactone, D-glucaro-1,4:6,3-dilactone]", "values": [{"measurement": "Rate constant k8", "setting": "[1]; 1,4:6,3-dilactone → 6,3-lactone (so in the source)", "value": "5.01e-05", "unit": "s⁻¹"}, {"measurement": "Rate constant k6", "setting": "[1]; 1,4:6,3-dilactone → 6,3-lactone", "value": 0.00197, "unit": "s⁻¹"}]}, {"compound": "O=C1O[C@H]([C@@H](O)C(=O)O)[C@H](O)[C@@H]1O", "note": "[6,3-lactone, D-glucaro-6,3-lactone]", "values": [{"measurement": "Rate constant k7", "setting": "[1]; 6,3-lactone → 1,4:6,3-dilactone (so in the source)", "value": 0.000664, "unit": "s⁻¹"}, {"measurement": "Rate constant k5", "setting": "[1]; 6,3-lactone → 1,4:6,3-dilactone", "value": 0.000174, "unit": "s⁻¹"}, {"measurement": "Rate constant k4", "setting": "[1]; 6,3-lactone → GA", "value": "8.7e-05", "unit": "s⁻¹"}]}, {"compound": "O=C(O)[C@@H](O)[C@@H](O)[C@H](O)[C@@H](O)C(=O)O", "note": "[GA, glucaric acid]", "values": [{"measurement": "AdisH", "setting": "[2]; solvent Isopropanol 87.5 wt. %", "value": 0.88, "unit": "kcal/mol"}, {"measurement": "AdisS", "setting": "[2]; solvent Isopropanol 87.5 wt. %", "value": "−40.78", "unit": "J/mol/K"}, {"measurement": "solubility in IPA-water lower than that in ACN-water", "setting": "[3]", "value": 53, "unit": "%"}, {"measurement": "solubility in IPA-water lower than that in water", "setting": "[3]", "value": 77, "unit": "%"}, {"measurement": "solubility", "setting": "physchem", "value": 26, "unit": "mg/mL"}, {"measurement": "higher solubility than KGA", "setting": "pH 1.5", "value": 56, "unit": "%"}, {"measurement": "solubility increase as pH is decreased", "setting": "pH 3.1", "value": "about 55%"}, {"measurement": "Rate constant k2", "setting": "[1]; GA → 1,4-lactone", "value": "4.84e-05", "unit": "s⁻¹"}, {"measurement": "Rate constant k3", "setting": "[1]; GA → 6,3-lactone", "value": "5.52e-05", "unit": "s⁻¹"}, {"measurement": "pKa1", "setting": "[4]", "value": 3.17}, {"measurement": "pKa2", "setting": "[4]", "value": 3.96}]}, {"compound": "O=C([O-])[C@@H](O)[C@@H](O)[C@H](O)[C@@H](O)C(=O)[O-].[K+].[K+]", "note": "[K2GA, dipotassium glucarate]", "values": [{"measurement": "solubility", "setting": "[5]; aqueous buffer", "value": "> 120", "unit": "mg/mL"}]}, {"compound": "O=C(O)[C@@H](O)[C@@H](O)[C@H](O)[C@@H](O)C(=O)[O-].[K+]", "note": "[KGA, monopotassium glucarate]", "values": [{"measurement": "solubility", "setting": "[5]; pH 3.5, aqueous buffer", "value": "~16", "unit": "mg/mL"}, {"measurement": "solubility", "setting": "[5]; pH 3.5, aqueous with cosolvent or surfactant or cyclodextrin", "value": "~8.1", "unit": "mg/mL"}, {"measurement": "additional reduction of solubility by adding acetone", "setting": "[5]; acetone 25 wt. %, pH 3.5", "value": 50, "unit": "%"}, {"measurement": "solubility in broth", "setting": "[5]; fermentation broth, pH 3.5, acetone (30 vol %)", "value": "almost zero"}, {"measurement": "saturation limit in high purity water", "setting": "[5]; high purity water, no pH adjustment", "value": 0.06, "unit": "M"}, {"measurement": "solubility relative to the solubility of K2GA at pH 5.8", "setting": "[5]; pH 3.5", "value": 13.5, "unit": "mol %"}, {"measurement": "AdisH", "setting": "[2]; solvent Acetone 24.7 wt. %", "value": 7.639, "unit": "kcal/mol"}, {"measurement": "AdisS", "setting": "[2]; solvent Acetone 24.7 wt. %", "value": 35.70, "unit": "J/mol/K"}, {"measurement": "maximum concentration (molar fraction) of KGA form", "setting": "[6]", "value": 55, "unit": "mol %"}]}]}
